What is called EC50 is the concentration giving half of the maximal effect.

SMILES strings stand for the structures.

Experimental findings from PMC9445041, “Development of a red fluorescent protein-based cGMP indicator applicable for live-cell imaging” (Communications Biology, 2022) are described below.

In this assay the target is T1, Red cGull (Mus musculus, UniProt Q8CG03).
T1 construct: gene Pde5a; N-terminal mouse APP fragment (aa 190-286) fused for bacterial expression; purified on Ni-NTA from E. coli JM109(DE3)
The assay is described as follows: fluorescence intensity dose-response, four-parameter logistic fit. It counts as binding.

T1 sequence (Q8CG03 164-298): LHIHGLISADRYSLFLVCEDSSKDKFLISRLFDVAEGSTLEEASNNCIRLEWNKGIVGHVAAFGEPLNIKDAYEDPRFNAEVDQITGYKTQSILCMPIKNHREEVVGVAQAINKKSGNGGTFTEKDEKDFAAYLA

For the molecule `Nc1nc2c(ncn2[C@@H]2O[C@@H]3COP(=O)(O)O[C@H]3[C@H]2O)c(=O)[nH]1` [cGMP], it took 330 nM to reach a half-maximal effect (EC50). This lies in the sub-micromolar range.
